The text below walks through data of patent publication US12728156B2, “Tumor cell-derived exosomes and method of treating colorectal cancer” (REGENTS OF THE UNIVERSITY OF MINNESOTA, priority 2020, dated 2026).

The subject of data set [1] is T cells. In words: T cell depletion in naïve mice. The class given is in vivo. The protocol:
FIGS. 23A-23D show the T cell depleting effects of 5-FU and anti-CD3 treatment. Related to FIGS. 14 and 16-18.
We tested the effects of 5-FU treatment and 5-FU and anti-4-1BB combination treatment on T cell depletion in vivo. Intraperitoneal administration of anti-CD3 treatment (clone: 17A2, BioXcell, 5 mg/kg every 3 days) was given to induce T cell depletion in mice. One dose of 5-FU (150 mg/kg) or 5-FU (150 mg/kg) and anti-4-1BB (5 mg/kg) combination treatment was given intraperitoneally in naïve mice. Mice were sampled on days 2, 4, 7, and 9 after treatment for quantifying T cells in lymph nodes, spleen, bone marrow, and blood circulation.

Data set [2] deals with CT26 and MC38 tumors. In words: Established tumor model, 5-FU and anti-4-1BB schedules. Conditions: monotherapy.
In data set [3] the test system is CT26 tumors. In words: Mass cytometry immune profiling of treated CT26 tumors. Type of data set: in vivo, mice. The text has this:
FIGS. 18A-18I show the tumor immunological response to 5-FU and anti-4-1BB treatments in CT26 tumors. […] PD-L1, Ki-67, CD80, and CD86 expression were quantified in whole tumor tissue. […] See also FIGS. 25-27.
FIGS. 27A-27H show the tumor immunological response to 5-FU and anti-PD-1 treatments in CT26 tumors. Related to FIG. 18.
Tumor samples were collected and digested using standard flow cytometry procedure. A total of 3 million single cells were used for each mass cytometry staining. In brief, the single cell pellets were first incubated with Cell-ID Cisplatin with a final concentration of 5 μM for 5 min at RT to identify dead cells. Cells were then washed and blocked by Fc-receptor blocking solution. Cell membrane staining was then performed with metal-conjugated antibodies for 30 min at RT. After staining, cells were fixed and permeabilized. The intracellular staining antibodies were then added and incubated for 45 min at RT. Finally, cells were labeled with 1 ml 1,000× diluted 125 μM Cell-ID intercalator-Ir to stain all cells in MaxPar Fix and Perm Buffer overnight at 4° C. EQ Four Element Calibration Beads with the reference EQ passport P13H2302 were added to each staining tube right before data acquisition by a CyTOF 2 mass cytometer. The mass cytometry data were then normalized and exported for gating on alive single cells, which were then imported to the Cytobank software. A t-SNE analysis was performed with default parameters (perplexity, 30; iterations, 1,000) on all cell types in tumor samples.

A short description of data set [4]: 5-FU toxicity evaluation (body weight, diarrhea score). Type of data set: in vivo, mice. Conditions: monotherapy. How it is done: FIGS. 24A-24D show the side effects of different treatments. Related to FIG. 16. FIGS. 24A-24B show mouse body weight, which was measured on day 12, 24, and 32 during treatment. […] FIGS. 24C-24D show the results of a diarrhea assessment, which was performed at the endpoint of mice follow-up to evaluate the side effects on mouse intestine.
Toxicity is a primary concern for cancer treatments, especially in combination therapy. We took this into account by evaluating the side effects of each treatment.
We recorded animal body weight and diarrhea scores after treatments. Mice were weighed on day 12, 24, and 32 after treatment. The diarrhea score was assessed at the endpoint of each treatment by using a 4-point scoring system: 0=normal stool; 1=slight diarrhea (soft formed stool without perianal staining of the coat); 2=moderate diarrhea (unformed stool with moderate perianal staining of the coat); and 3=severe diarrhea (watery stool with severe perianal staining of the coat) (Song et al., 2013).

For data set [5], the system named is miR-424 levels in T-cells and DCs. In words: CT26 tumor cells co-cultured with naïve T-cells and DCs, miR-424 level. Type of data set: cell-based, mouse. The note with it: co-culture with CT26 tumor cells; EV production blocked. The protocol: miR-424 levels were analyzed across different samples, including tumor cells, immune cells, and EVs (FIG. 3A). To determine whether EVs can be up-taken by T-cells and DCs, CT26-WT cell line-derived EVs were stained with Dio dye and incubated with mouse naïve T-cells and DCs. Images taken using confocal microscopy confirmed the presence of Dio labeled EVs inside the T-cells and DCs (FIG. 3B). Next, CT26 tumor cells were co-cultured with naïve T-cells and DCs, which lead to a significant increase in miR-424 levels in both T-cells and DCs (FIG. 3C). Importantly, this increase in miR-424 could be neutralized by blocking the production of EVs in the co-culture system using GW4869 (FIG. 3C). To determine whether this tumor-derived EVs were being engulfed by the immune cells, CD63-GFP transfected CT26 tumor cells were injected into mice to establish a subcutaneous tumor model. […] Next, we sought to determine whether these effects could be eliminated by knocking out miR-424 in tumors. To this end, T-cells and DCs were isolated from the spleens of healthy mice, and of mice with wild-type tumors or miR-424 knockout (KO) tumors using flow cytometry sorting. miR-424 level was measured in the sorted T-cells and DCs by qPCR. […] Next, to study the impact of EV miR-424 expression on T-cell co-stimulation, the Jurkat cell and Raji cell conjugation assays were used. […]

The test system of data set [6] is IL-2 production. In words: Jurkat-Raji conjugation system co-cultured with human CRC derived organoids. Type of data set: cell-based. Conditions: EVs secretion blocked in the co-culture system. The protocol:
miR-424 levels were analyzed across different samples, including tumor cells, immune cells, and EVs (FIG. 3A). To determine whether EVs can be up-taken by T-cells and DCs, CT26-WT cell line-derived EVs were stained with Dio dye and incubated with mouse naïve T-cells and DCs. Images taken using confocal microscopy confirmed the presence of Dio labeled EVs inside the T-cells and DCs (FIG. 3B). Next, CT26 tumor cells were co-cultured with naïve T-cells and DCs, which lead to a significant increase in miR-424 levels in both T-cells and DCs (FIG. 3C). Importantly, this increase in miR-424 could be neutralized by blocking the production of EVs in the co-culture system using GW4869 (FIG. 3C). To determine whether this tumor-derived EVs were being engulfed by the immune cells, CD63-GFP transfected CT26 tumor cells were injected into mice to establish a subcutaneous tumor model. […] To this end, T-cells and DCs were isolated from the spleens of healthy mice, and of mice with wild-type tumors or miR-424 knockout (KO) tumors using flow cytometry sorting. miR-424 level was measured in the sorted T-cells and DCs by qPCR. […]
The Jurkat-Raji cells conjugation system was used for understanding the impacts of human tumor organoid-derived EVs on co-stimulation as well. […] Concentration of IL-2 was quantified in the co-culture system.

`O=c1[nH]cc(F)c(=O)[nH]1` [5-FU, 5-fluorouracil]: the T cell depletion result in data set [1] is “depleted T cells in lymphatic organs, blood circulation, and bone marrow”. For the same compound, the “time to recovery of the T cell population” value in data set [1] (after 5-FU treatment) is recorded as “around 9 days”. For the same compound, the “tumor growth and survival time” value in data set [2] is “delayed tumor development”. Further, the “frequency of MDSCs” value in data set [3] (5-FU monotherapy and combination treatment) is listed as “decreased”. Also, in data set [3] (5-FU treatment), the “CD80 expression and MDSCs in tumor tissue” value is “upregulated CD80 expression and depleted MDSCs”; the “T-cell population in the tumor microenvironment” value was “suppressed the T-cell population”. Besides, the side effects entry in data set [4] was “severe body weight loss and diarrhea”.
For `O=C(/C=C/c1ccc(/C=C/C(=O)Nc2ccc(C3=NCCN3)cc2)cc1)Nc1ccc(C2=NCCN2)cc1` [GW4869], the “increase in miR-424 levels in T-cells and DCs” value in data set [5] is listed as “neutralized”. In addition, the “suppression of IL-2 production by organoids” value in data set [6] was “neutralized”.
